≈ marks a conversion by molar mass, not a printed value. Where a SMILES comes first, the peptide text is derived from it. [ ]: non-standard residue; d: D form. NCyclohexylmethylGly = O=C(O)CNCC1CCCCC1; N(tridecyl)Gly = CCCCCCCCCCCCCNCC(=O)O; Gly(N-2-aminoethyl) = NCCNCC(=O)O; Gly(N-cHex) = O=C(O)CNC1CCCCC1; Gly(N-cPent) = O=C(O)CNC1CCCC1; N(iPr)Gly = CC(C)NCC(=O)O; NPhGly = O=C(O)CNc1ccccc1; NHexGly = CCCCCCNCC(=O)O; Nlys = NCCCCNCC(=O)O
Experiments:
C. neoformans [1] = assay: microbe, parasite or virus in culture; format: cell-based, Cryptococcus neoformans; details: for interpretation of combination with RMG8-8: FICi<0.5 synergistic, 0.5≤FICi≤4 indifferent, FICi>4 antagonist; for Combination MIC RMG8-8:Drug, RMG8-8 part: RMG8-8 concentration in combination with the named drug; for Combination MIC RMG8-8:Drug, Drug part: drug concentration in combination with RMG8-8; for FICi: named drug in combination with RMG8-8; for MIC: Cryptococcus neoformans, read-out: MIC (compound alone)
Method: Cell solution was diluted into RPMI-MOPS (1:100) followed by another dilution into RPMI-MOPS (1:20). […] Plates were incubated for 72 hours at 35° C. MIC was determined as the lowest concentration of individual compound or combined compounds inhibiting pathogen growth. Fractional inhibitory concentration index (FICi) was determine using the following equation: FICi values were interpreted as follows: FICi<0.5 synergistic; 0.5≤FICi≤4 indifferent; FICi>4 antagonist (Johnson et al., Antimicrob. Agents Chemother. 48, 693-715 (2004)).

C. neoformans [2] = format: cell-based, Cryptococcus neoformans; details: 72 h
Method: The minimum inhibitory concentration (MIC) of peptoids against fungal pathogens C. albicans and C. neoformans was determined following CLSI guidelines (CLSI. Reference method for broth dilution antifungal susceptibility testing of yeasts; approved standard-third edition; CLSI document M27-A3. (Clinical and Laboratory Standards Institute, 2008). […] This inoculant was diluted 1:100 into RPMI-MOPS and then further diluted 1:20 into RPMI-MOPS. 198 μL of inoculant was seeded into each well of a 96 well black-walled plate. 2-fold serial dilutions of 100× peptoid solutions were prepared in water and 2 μL of peptoid were added to each well in triplicate. […] MIC was defined as the lowest concentration of compound preventing fungal growth. This assay was repeated 3 times on separate days with each compound. […] The addition of 0.1 mL cell solution to 9.9 mL of RPMI-MOPS produced a 1:100 cell solution. After vortexing, 0.5 mL of the […] was added to 9.5 mL RPMI-MOPS to produce a 1:20 cell solution. 198 μL of the 1:20 solution was added to the wells of an opaque 96-well plate, apart from the wells designated for the medial control. […] Amphotericin B was used as a positive control, and sterile water was used for the vehicle control. The plates were incubated for 72 hours at 35° C. After incubation, the concentration of compound resulting in no visual growth was recorded as the MIC. All assays performed in biological triplicate on different days.

[3] = Mammalian cytotoxicity, MTT, HepG2; format: cell-based, human; details: human, HepG2 hepatocellular carcinoma cells
Method: (§1) Hepatocellular carcinoma (HepG2), mouse fibroblast (3T3), human lung (HPL1A), and human keratinocyte (HaCat) cells were cultured in Dulbecco modified eagle media (DMEM) containing 10% fetal bovine serum (FBS) and 1% penicillin, streptomycin, and glutamine (PSG) at 37° C. and 5% CO2. Cells were collected and adjusted to […] to 4×10^5 cells/mL in phenol-red free DMEM and plated (100 μL) 96 well plates. 2-fold serial dilutions of 10× peptoid (11.1 μL) were added to each well in triplicate. Water (vehicle) was used as a negative control. Plates were incubated at 37° C. in 5% CO2 for 72 hours. Thiazolyl blue tetrazolium bromide (MTT) was added to each well (5 mg/mL; 20 μL) and incubated for 3 hours. Media was removed, DMSO (100 μL) was added, and plates were incubated at 37° C. for 10 minutes. Plates were read on a SpectraMax M5 plate reader (Abs. 570 nm). The concentration of compound resulting in a 50% reduction in growth compared to control (toxicity dose 50%; TD50) was determined using GraFit. This procedure was repeated three times on separate days.
(§2) Cytotoxicity against HepG2 hepatocellular carcinoma cells was done as previously described (Green et al. ACS infectious diseases, (2022); Corson et al. ACS medicinal chemistry letters 7 12, 1139-1144 (2016)). HepG2 cells were maintained in culture in T-75 flasks using Dulbecco's Modified Eagle's Media (DMEM) with phenol red pH indicator and supplemented with 10% fetal bovine serum (FBS) and 1% penicillin, streptomycin, and glutamine (PSG). The cells were incubated at 37° C. and 5% CO2 in a humidified incubator until desired confluency was achieved. The media was removed from the flask, and the cells were washed 1× with 10 mL of phosphate-buffered saline (PBS; 11.8 mM phosphate, 140.4 mM NaCl; pH 7.4) which was then discarded. To remove the adhered cells from the flask, 2 mL of trypsin was added, and the cells were incubated for 10 minutes. To quench the trypsin, 8 mL of phenol red-free DMEM with 10% FBS and 1% PGS was added, and the cell solution was transferred to a 15 mL conical tube. After the cells were pelleted by centrifugation at 1000 rpm for 5 minutes, the supernatant was poured off and cells resuspended in the volume of phenol red-free media needed for the assay. Cell concentration was determined by counting with a hemocytometer, and the solution was diluted with media until a concentration of 1×10^5 cells/mL was achieved. A 100 μL aliquot of cell solution was added to each well of a 96-well plate, apart from the 3 wells used for a media control. Cells were incubated for 2-3 hours at 37° C. and 5% CO2 until cells were adherent.
(§3) Compound stocks of 20 mg/mL were used to prepare 2-fold serial dilutions of each compound in sterile water, giving final concentrations of 200, 100, 50, 25, 12.5, 6.25, 3.13 and 1.56 μg/mL. 11.1 μL of prepared compound solutions was added to the appropriate wells in triplicate. A negative vehicle control of sterile water, as well as the aforementioned media control, were used. The plates were incubated for 72 hours at 37° C. and 5% CO2. After incubation, 20 μL of 5 mg/mL 3-(4,5-dimethylthiazol-2-yl)-2,5-diphenyltetrazolium bromide (MTT) in water was added to each well. The plate was incubated for 3 hours at 37° C. and 5% CO2. Media was removed from each well using a sterile glass Pasteur pipette. 100 μL of DMSO was added to each well and incubated for 15 minutes at 37° C. Absorbance was read at 570 nm using a SpectraMax M5 Plate Reader. This MTT assay was performed in biological duplicate unless discrepant results were observed. If this was the case, the assay was performed in biological triplicate for further verification. The reported value is the average of biological replicates with standard deviation.

[4] = tested on: HepG2 hepatocellular carcinoma cells; assay: Mammalian cytotoxicity, MTT, HepG2; format: cell-based, human
Method: as §1, §2, §3

[5] = Percent acetonitrile at elution during RP-HPLC purification (hydrophobicity); format: physicochemical; details: percent acetonitrile at the time of elution from HPLC
Description: All RMG8-8 derivatives were synthesized via the solid-phase submonomer synthesis method on polystyrene Rink Amide resin (Zuckermann et al. Journal of the American Chemical Society 114, 10646-10647 (1992)). The amines used during synthesis and the peptoid shorthand notations for each monomer are provided in Table 7 and Table 8, respectively. Compounds were purified to greater than 95% by RP-HPLC and compound identity was confirmed by ESI-TOF MS (Table 9). The calculated distribution coefficient at pH 7.4 (c Log D7.4) (via Chemaxon. MarvinSketch 19.17.0, 2019) and the percent acetonitrile at the time of elution during HPLC purification were recorded and serve as measures of hydrophobicity (Table 10). Higher values for c Log D7.4 and percent acetonitrile are indicators of increased compound hydrophobicity. With antimicrobial peptoids, hydrophobicity is directly related to both antimicrobial activity and cytotoxicity (Andreev et al. Biochimica et biophysica acta. Biomembranes 1860 6, 1414-1423 (2018); Bolt et al. Med chem comm 8, 886-896 (2017); Frederiksen et al. Molecules 24, (2019)). The ideal balance of these parameters generally must be determined experimentally. To measure antifungal activity, the minimum inhibitory concentration (MIC), defined as the concentration of compound required to inhibit 90% of fungal growth, was determined against C. neoformans using the broth microdilution method. Mammalian cytotoxicity was evaluated through a cell metabolic activity assay with HepG2 liver carcinoma cells, and select, potentially promising compounds were tested for unwanted hemolytic activity against human red blood cells.
Peptoids were purified via Reversed-Phase High-Performance Liquid Chromatography (RP-HPLC) using a Varian Prepstar SD-1. A gradient of 0-100% water to acetonitrile containing 0.05% TFA made up the mobile phase, and a Supelco Ascentis C18 column (5 μm; 25 cm×21.2 mm; Sigma-Aldrich 581347-U) was used as the stationary phase. Peaks in the chromatogram above 0.1 AU were collected and analyzed via mass spectrometry. The peak product with the desired peptoid was dried down in vacuo and lyophilized overnight. Peptoids were then reconstituted in sterile […] deionized water to create compound stocks of 20 mg/mL.

[6] = checkerboard, 72 hours at 35° C.

Compound | interpretation of combination with RMG8-8 (C. neoformans [1]) | Combination MIC RMG8-8:Drug, RMG8-8 part (C. neoformans [1]) [µg/mL] | MIC (compound alone) (C. neoformans [1]; [6]) [µg/mL] | Combination MIC RMG8-8:Drug, Drug part (C. neoformans [1]) [µg/mL] | FICi (C. neoformans [1]) | C. neoformans MIC (C. neoformans [2]) [µg/mL] | CC50 at 72 h [3] [µg/mL] | HepG2 TD50 [4] | % ACN [5] [%] | MIC (C. neoformans [1]; [6]) [µg/mL]
C[C@@H]1[C@H](O)[C@@H](C)/C=C/C=C/C=C/C=C/C=C/C=C/C=C/[C@H](O[C@@H]2O[C@H](C)[C@@H](O)[C@H](N)[C@@H]2O)C[C@@H]2O[C@](O)(C[C@@H](O)C[C@@H](O)[C@H](O)CC[C@@H](O)C[C@@H](O)CC(=O)O[C@H]1C)C[C@H](O)[C@H]2C(=O)O [Amphotericin B] | mild additive effect | 0.8 | 0.25 | 0.06 | 0.75 | – | – | – | – | –
CCCCCCCCCCCCCNCC(=O)N(CC(=O)N(CCCC[N+](C)(C)C)CC(=O)N(CC[N+](C)(C)C)CC(=O)N(CC(N)=O)C1CCCCC1)C1CCCCC1 [Compound 1] | – | – | – | – | – | 12.5 | > 200 | > 200 µg/mL | – | –
CCCCCCCCCCCCCNCC(=O)N(CCCCN)CC(=O)N(CC(=O)N(CC(=O)N(CCN)CC(N)=O)C1CCCCC1)C1CCCCC1 [Compound 3] (H-[N(tridecyl)Gly][Nlys][Gly(N-cHex)][Gly(N-cHex)][Gly(N-2-aminoethyl)]-NH2) | – | – | – | – | – | 3.13 | 105 ± 3.8 (≈ 138 µM) | – | 69.3 | –
CCCCCCCCCCCCCNCC(=O)N(CC(=O)N(CCCCN)CC(=O)N(CCN)CC(=O)N(CC(N)=O)C(C)C)C(C)C [Compound 8] (H-[N(tridecyl)Gly][N(iPr)Gly][Nlys][Gly(N-2-aminoethyl)][N(iPr)Gly]-NH2) | – | – | – | – | – | 25 | > 200 | greater than 200 μg/mL | 66.7 | –
CCCCCCCCCCCCCNCC(=O)N(CCCCCC)CC(=O)N(CCCCN)CC(=O)N(CCN)CC(=O)N(CCCCCC)CC(N)=O [Compound 10] (H-[N(tridecyl)Gly][NHexGly][Nlys][Gly(N-2-aminoethyl)][NHexGly]-NH2) | – | – | – | – | – | 1.56 to 3.13 | 61 ± 9 (≈ 79.5 µM) | – | 73.3 | –
CCCCCCCCCCCCCNCC(=O)N(CC(=O)N(CCCCN)CC(=O)N(CCN)CC(=O)N(CC(N)=O)C1CCCC1)C1CCCC1 [Compound 11] (H-[N(tridecyl)Gly][Gly(N-cPent)][Nlys][Gly(N-2-aminoethyl)][Gly(N-cPent)]-NH2) | – | – | – | – | – | 6.25 | > 200 | greater than 200 μg/mL | 68.1 | –
CCCCCCCCCCCCCNCC(=O)N(CC(=O)N(CCCCN)CC(=O)N(CCN)CC(=O)N(CC(N)=O)CC1CCCCC1)CC1CCCCC1 [Compound 12] (H-[N(tridecyl)Gly][NCyclohexylmethylGly][Nlys][Gly(N-2-aminoethyl)][NCyclohexylmethylGly]-NH2) | – | – | – | – | – | 1.56 to 3.13 | 62 ± 3 (≈ 78.4 µM) | – | 71.4 | –
CCCCCCCCCCCCCNCC(=O)N(CC(=O)N(CCCCN)CC(=O)N(CCN)CC(=O)N(CC(N)=O)CC1CCCO1)CC1CCCO1 (stereo not drawn) [Compound 13] | – | – | – | – | – | 12.5 to 25 | > 200 | greater than 200 μg/mL | 67.3 | –
CCCCCCCCCCCCCNCC(=O)N(CC(=O)N(CCCCN)CC(=O)N(CCN)CC(=O)N(CC(N)=O)c1ccccc1)c1ccccc1 [Compound 14] (H-[N(tridecyl)Gly][NPhGly][Nlys][Gly(N-2-aminoethyl)][NPhGly]-NH2) | – | – | – | – | – | 1.56 to 3.13 | 81 ± 25 (≈ 108 µM) | – | 67.7 | –
OC(Cn1cncn1)(Cn1cncn1)c1ccc(F)cc1F [Fluconazole] | indifferent | 1.56 | – | 2 | 2 | – | – | – | – | 2
Nc1[nH]c(=O)ncc1F [Flucytosine] | indifferent | 1.56 | – | 2 | 2 | – | – | – | – | 2

— US20240352066A1, “ANTIMICROBIAL COMPOUNDS AND THE METHOD OF USE” (priority 2021, published 2024)
